Experimental data as given in patent publication US20130316985A1, “GPR35 Ligands And Uses Thereof” (CORNING INCORPORATED, priority 2012, published 2013).
“Also recorded” adds a separate entry of the source. Where two headings read alike, the source gives them in different places.

What was measured:
GPR35 [1] = target: T1, GPR35 (Homo sapiens, UniProt Q9HC97); test: DMR agonism assay in native HT-29 cells (Epic optical biosensor); settings: for DMR signal in HT-29 cells (in words): agonism mode
GPR35 [2] = target: T1, GPR35; test: Tango β-arrestin translocation gene reporter assay in U2OS-GPR35-bla cells; type: cell-based; set-up: TEV protease site (C); Gal4-VP16 transcription factor (C); settings: for EC50: read-out: Potency EC50, Tango; for β-arrestin translocation (Tango) signal (in words): 2,3-DNP up to 1 mM, 3,4-DNP at 1 mM
GPR35 [3] = target: T1, GPR35
GPR35 [4] = target: T1, GPR35; settings: U2OS-GPR35-bla
GPR35 [5] = target: T1, GPR35; test: cell-based
GPR35 [6] = target: T1, GPR35; remark: listed apart in the source
[7] = U2OS-GPR35-bla cells, β-arrestin translocation, mean ± s.d.
[8] = HT-29, ML-145 at different doses 10 min before agonist at fixed dose
[9] = U2OS-GPR35-bla, zaprinast maximal response in same plate = 100%, read-out: efficacy (Tango, normalized to maximal response of zaprinast)
[10] = maximal response normalized to the zaprinast maximal response, read-out: Efficacy Tango
[11] = maximal DMR response in HT-29 (2,5-DNP: amplitude at 50 min)
[12] = maximal response normalized to the zaprinast maximal response

T1 sequence (Q9HC97 whole entry, the tested form may be a part): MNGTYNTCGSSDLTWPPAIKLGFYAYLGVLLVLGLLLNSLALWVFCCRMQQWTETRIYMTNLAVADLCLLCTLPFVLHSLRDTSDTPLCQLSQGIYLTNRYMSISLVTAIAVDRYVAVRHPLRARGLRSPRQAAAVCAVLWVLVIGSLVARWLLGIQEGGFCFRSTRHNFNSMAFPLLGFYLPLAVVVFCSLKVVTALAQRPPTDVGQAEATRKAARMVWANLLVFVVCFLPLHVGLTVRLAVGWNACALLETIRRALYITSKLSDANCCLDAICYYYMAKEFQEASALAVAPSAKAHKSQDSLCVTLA

In the case of `O=C(O)c1cc(/N=N/c2ccc(O)c(C(=O)O)c2)ccc1O` (single isomer, unassigned) [olsalazine], the EC50 (GPR35 [1]) is reported as 0.0218 µM, the EC50 (GPR35 [2]; [7]) is reported as 1.26 µM and the “agonist type compared to zaprinast, based on maximal responses in Tango assays” value (shortened to “agonist type compared to zaprinast”) (GPR35 [2]; U2OS-GPR35-bla, listed as olasalazine) is reported as “full agonists”.

For `O=[N+]([O-])c1ccc(O)c([N+](=O)[O-])c1` [2,4-DNP, 2,4-dinitrophenol], the “Efficacy DMR” value (GPR35 [1]) was 249 ± 17 pm, the Emax (GPR35 [2]; read-out: Efficacy Tango) was 28 ± 1% and the EC50 (GPR35 [2]) was 272 µM. The Emax (GPR35 [2]; read-out: efficacy (Tango, normalized to maximal response of zaprinast)) was 28% and the “inhibition of the agonist-induced DMR by ML-145 (in words)” value (from here on “inhibition of the agonist-induced DMR”) (GPR35 [3]) was “partial inhibition; also recorded: partially inhibited”.

`O=[N+]([O-])c1cc(O)c(O)c([N+](=O)[O-])c1` [3,5-dinitrocatechol] showed an EC50 (GPR35 [2]) of 123 µM.

`COc1cccc(O)c1O` [3-methoxycatechol] was tested, and the “DMR signal in HT-29 cells (in words)” value (GPR35 [1]) was “active”, the “β-arrestin translocation (Tango) signal (in words)” value (from here on “β-arrestin translocation”) (GPR35 [2]; U2OS-GPR35-bla) was “trigger Tango signal” and the “block of the agonist-induced Tango signal by ML-145 (in words)” value (from here on “block”) (GPR35 [4]) was “can be blocked by ML-15”. For the same molecule, the “inhibition of the agonist-induced DMR” value (GPR35 [3]; [8]) was “can be blocked by ML-145”.

`O=C(O)c1cc(/N=N/c2ccc(O)c(C(=O)O)c2)ccc1O` [Bi-ASA, (E)-(5,5-diazene-1,2-diyl)bis(2-hydroxybenzoic acid)] was tested, and the EC50 (GPR35 [1]) was 0.00209 µM, the “agonist type compared to zaprinast” value (GPR35 [2]; U2OS-GPR35-bla) was “strong partial agonist” and the EC50 (GPR35 [2]; [7]) was 1.7 µM.

For `Nc1ccc(O)c(C(=O)O)c1` [Compound 5-ASA, 5-aminosalicylic acid], the “agonist type compared to zaprinast” value (GPR35 [2]; U2OS-GPR35-bla) was “weak partial agonist”, the EC50 (GPR35 [2]; [7]) was 545 µM and the EC50 (GPR35 [5]) was 14.7 µM.

Molecule `CCN(CC)C(=O)/C(C#N)=C/c1cc(O)c(O)c([N+](=O)[O-])c1` [Entacapone] has an Emax (GPR35 [2]; [9]) of 6% and an Emax (GPR35 [2]; [10]) of 6 ± 1%.

In the case of `O=C(c1cc(O)c(O)c([N+](=O)[O-])c1)c1ccccc1F` [Ro41-0960], the “Efficacy DMR” value (GPR35 [1]; [11]) is reported as 257 ± 16 pm, the EC50 (GPR35 [2]; [7]) is reported as 54.4 µM and the “efficacy (Tango, normalized to maximal response of zaprinast)” value (GPR35 [2]; U2OS-GPR35-bla, zaprinast maximal response in same plate = 100%) is reported as 13%. The “Efficacy Tango” value (GPR35 [2]; [12]) was 13 ± 1 % zaprinast, the “inhibition of the agonist-induced DMR” value (GPR35 [3]; [8]) was “partially inhibited” and the EC50 (GPR35 [6]) was 8.66 µM.

In the case of `Cc1ccc(C(=O)c2cc(O)c(O)c([N+](=O)[O-])c2)cc1` [Tolcapone, 3,4-dihydroxy-4′-methyl-5-nitrobenzophenone], the “DMR signal in HT-29 cells (in words)” value (GPR35 [1]) is reported as “positive DMR with an early peak followed by a small decay to another elevated plateau”, the “Efficacy DMR” value (GPR35 [1]; [11]) is reported as 400 ± 33 pm and the EC50 (GPR35 [2]; [7]) is reported as 49.2 µM. The Emax (GPR35 [2]; [9]) was 25%, the Emax (GPR35 [2]; [10]) was 25 ± 2% and the “inhibition of the agonist-induced DMR” value (GPR35 [3]; [8]) was “partially inhibited”. For the same molecule, the “inhibition of the agonist-induced DMR” value (GPR35 [3]; HT-29, ML-145 at different doses 10 min before agonist at fixed dose, listed as tolcapone) was “partial inhibition” and the EC50 (GPR35 [6]) was 7.44 µM.

In the case of `CCCOc1ccccc1-c1nc(=O)c2[nH]nnc2[nH]1` [Zaprinast], the “Efficacy DMR” value (GPR35 [1]; [11]) is reported as 254 ± 14 pm, the Emax (GPR35 [2]; [9]) is reported as 100% and the “Efficacy Tango” value (GPR35 [2]; [12]) is reported as 100 ± 9 % zaprinast.

For `O=C(O)CCNC(=O)c1ccc(/N=N/c2ccc(O)c(C(=O)O)c2)cc1` [balsalazide], the “agonist type compared to zaprinast” value (GPR35 [2]; U2OS-GPR35-bla) was “full agonists”, the EC50 (GPR35 [2]; [7]) was 46.2 µM and the EC50 (GPR35 [5]) was 2.59 µM.

With `CCCCCCCCOC(=O)c1cc(O)c(O)c(O)c1` [octyl gallate] the “DMR signal in HT-29 cells (in words)” value (GPR35 [1]) was “active”, the “β-arrestin translocation” value (GPR35 [2]; U2OS-GPR35-bla) was “trigger Tango signal” and the “block” value (GPR35 [4]) was “can be blocked by ML-15”. For the same molecule, the “inhibition of the agonist-induced DMR” value (GPR35 [3]; [8]) was “can be blocked by ML-145”.

In the case of `CCCOC(=O)c1cc(O)c(O)c(O)c1` [propyl gallate], the “DMR signal in HT-29 cells (in words)” value (GPR35 [1]) is reported as “active”, the “β-arrestin translocation” value (GPR35 [2]; U2OS-GPR35-bla) is reported as “trigger Tango signal” and the “block” value (GPR35 [4]) is reported as “can be blocked by ML-15”. For the same molecule, the “inhibition of the agonist-induced DMR” value (GPR35 [3]; [8]) was “can be blocked by ML-145”.

`Oc1cccc(O)c1O` [pyrogallol] was tested, and the “DMR signal in HT-29 cells (in words)” value (GPR35 [1]) was “active”, the “β-arrestin translocation” value (GPR35 [2]; U2OS-GPR35-bla) was “trigger Tango signal” and the “block” value (GPR35 [4]) was “can be blocked by ML-15”. For the same molecule, the “inhibition of the agonist-induced DMR” value (GPR35 [3]; [8]) was “can be blocked by ML-145”.

`O=C(O)c1cc(/N=N/c2ccc(S(=O)(=O)Nc3ccccn3)cc2)ccc1O` [sulfasalazine] was tested, and the “agonist type compared to zaprinast” value (GPR35 [2]; U2OS-GPR35-bla) was “partial agonist”, the EC50 (GPR35 [2]; [7]) was 31.3 µM and the EC50 (GPR35 [5]) was 2.99 µM.
